Data set [1] can be described thus: Differential scanning calorimetry (DSC), glass transition temperature. The class given is physicochemical. The settings on record: cool/heat 5° C./min, 30 to −80° C. How it is done: The TA Instruments DSC 2500 RCS40 cooling unit (TA instruments, New Castle, DE, USA), calibrated with indium, was used to record thermograms of pure compounds of D-PLA, L-PLA, carnitine, and their corresponding ILs. The samples were weighed (6-10 mg) and hermetically sealed in Tzero aluminium pans, along with an empty reference Tzero pan. The atmosphere was inert because of nitrogen purge at a rate of 25 mL/min. The samples were heated from 30° C. to the temperature equivalent to a 5% weight loss point with a 5° C./min ramp for each sample to observe thermal transitions. The glass transition temperature (Tg) for each sample was recorded in the cool/heat run at 5° C./min ramp from 30° C. to −80° C., and from −80° C. to 30° C. TRIOS software (TA instruments, New Castle, DE, USA) was used to analyse the data.
(Differential scanning calorimetry records heat flow against a reference as temperature is scanned.)

Data set [2] relates to human cervical epithelial cells (A2EN). Nature of the data set: MTT assay for cervical cell proliferation/viability. It is filed as cell-based. The settings on record: 24 h; even at 50 mM. How it is done:
(§1) Human endocervical epithelial cell line (A2EN), generated from human endocervical explant tissue^31, was cultured as monolayers in keratinocyte serum-free medium (KFSM) supplemented with recombinant epidermal growth factor (5 ng/ml), bovine pituitary extract (50 μg/ml; Gibco), CaCl2 ([…]; Sigma-Aldrich), and primocin (100 μg/ml; InvivoGen, San Diego, CA), herein referred to as A2 medium, at 37° C. under 5% carbon dioxide (CO2) atmosphere.
(§2) Prior to cytotoxicity testing, PLA ILs were diluted to 1 M concentrations with distilled water and filtered using a sterile 0.2 μm syringe filter. Solutions with pH ranging from 4 to 7.5 were prepared by adjusting the pH of A2 media with hydrochloric acid (HCl), following filtration using a sterile 0.2 μm syringe filter.
Cervical cell monolayers were seeded into a tissue-treated 96-well microtiter plate (Corning Costar) at a density of 2.0×10^4 cells/well and incubated for 24 h at 37° C. under 5% CO2. Cells were treated with each PLA IL at concentrations ranging to 3.125 to 100 mM and incubated for 24 h (37° C. under 5% CO2). […] Absorbance was measured at 570 nm (reference 650 nm) and recorded using the Safire II Multi-Mode Microplate reader (Tecan, Mannedorf, Switzerland). Percentage cell viability was calculated as [sample absorbance−media background absorbance]/[control absorbance−media background absorbance]×100. […]

Data set [3] is described as follows: pH determination of PLA ILs dissolved in water. The class given is physicochemical. How it is done: (§3) The equilibrium solubility of D-PLA, L-PLA, and their ILs was determined using a previously reported method.^30 An excess amount of D-PLA, L-PLA, or their ILs was added in an Eppendorf tube along with 1 mL of water. The sample was placed on an orbital shaker and was equilibrated at room temperature for 24 h with a speed of 200 rpm. After 24 h, the samples were centrifuged, the supernatant was filtered using a 0.22 μm syringe filter and further diluted using methanol as necessary. The D-PLA or L-PLA content in the supernatant was analyzed using the HPLC method to calculate the equilibrium solubility. Further, the pH values of D-PLA, L-PLA, and their ILs dissolved in water were determined using a VWR 1100L pH meter.

Data set [4] relates to human cervical epithelial cells (A2EN). Briefly: Crystal violet staining for cervical cell morphology. It is filed as cell-based. The settings on record: 24 h; even at 100 mM. Here is the method:
as §1, §2
Cervical cell morphology following PLA IL treatment was visualised using 2.3% crystal violet stain with 0.1% ammonium oxalate and 20% ethanol (Sigma-Aldrich). Cervical cell monolayers were seeded into a tissue-treated 24-well microtiter plate (Falcon) at a density of 1.5×10^5 cells/well and incubated for 24 h at 37° C. under 5% CO2. Two-fold serial dilutions of each PLA IL were prepared and aliquoted into respective wells to obtain final concentrations of 3.125 to 100 mM. Deionised water and 1% Conceptrol (v/v), containing the detergent, nonoxynol-9, were used as negative and positive controls, respectively. […]

Data set [5] is described as follows: Thermogravimetric analysis (TGA), thermal stability. The class given is physicochemical. The settings on record: 30-350° C. at 10° C./min, nitrogen. How it is done: TA Instruments Discovery TGA 5500 (TA instruments, New Castle, DE, USA) was used to analyse pure PLA, carnitine, and various PLA ILs. The samples were accurately weighed (2-5 mg) in platinum pans and placed onto the autosampler. The samples were heated from 30° C. to 350° C. at 10° C./min; nitrogen was purged at a rate of 25 mL/min. TRIOS software (TA instruments, New Castle, DE, USA) was used to analyse the data.

Data set [6] in a line: Kinetic solubility in water. It is filed as physicochemical. The note with it: vs equilibrium solubility.
A short description of data set [7]: Equilibrium (saturation) solubility in water. It is filed as physicochemical. The settings on record: room temperature, HPLC; for saturation/equilibrium solubility in water: 24 h, 1440 min. Here is the method:
To evaluate the purity of the synthesized D- or L-PLA ILs and for the determination of their water solubility, a reverse phase-HPLC method was developed. The HPLC apparatus consisted of a Shimadzu LC2050C-3D system with a PDA detector. Samples were run through a C18 precolumn and a Gemini C18 reverse-phase column [150×4.5 mm (ID.)] with 5 μm particle size packing (Phenomenex, Torrance, CA). The mobile phase contained acetonitrile and 20 mM phosphoric acid solution in water (25:75). The flow rate of the mobile phase was at 0.8 mL/min, the column oven was set at 45° C., the injection volume was 10 μL, and the detection was carried out at 210 nm. The retention time for PLA was 5.5 min. For the standard curve, D- or L-PLA stock solutions (0.1 mg/mL) were prepared in methanol. The stock solutions were diluted to obtain solutions of various concentrations. The standard curve was obtained by injecting 5-25 μg/mL of PLA. All the experiments were performed in triplicate.
as §3

The test system of the next data set is bacteria and fungi. The settings on record: D-PLA vs L-PLA; cited from earlier work.
In data set [8] the test system is urogenital pathogens (Streptococcus agalactiae, Klebsiella pneumoniae, Candida albicans). The note with it: in vitro; gram-positive, gram-negative and fungal urogenital pathogens; cited from earlier work.
Data set [9] deals with Salmonella enterica serovar Typhimurium-induced colitis. The note with it: mice; cited from earlier work.
Data set [10] relates to peroxisome proliferator-activated receptor γ (PPAR-γ). The settings on record: mouse model, early-life antibiotic exposure and high-fat diet; cited from earlier work.
Data set [11] deals with cervicovaginal epithelial barrier. The settings on record: cited from earlier work.

In brackets after ≈: the same amount, converted by molar mass.

On to `C[N+](C)(C)CCO.O=C([O-])[C@H](O)Cc1ccccc1` [Chol:D-PLA (1:1)], for which, in data set [1], the “glass transition temperature (Tg)” value was −63.53 °C. The “cell viability” value in data set [2] is given as “did not significantly reduce cervical epithelial cell viability”. The pH in data set [3] is recorded as ~ 9. In addition, in data set [4], the morphological changes result was “no morphological changes were observed”. Further, the “T5% (onset temperature at 5% mass loss)” value in data set [5] is 94.3 °C.
In general, thermodynamic solubility refers to solubility found after equilibrating the solid with the medium. For the compound `O=C(O)[C@H](O)Cc1ccccc1` [D-PLA], in [6], the “kinetic solubility in water” value is “considerably lower”. Moreover, in data set [7], the “saturation/equilibrium solubility in water” value was greater than 25 mg/mL and the thermodynamic solubility at 24 h was 33.1 ± 0.44 mg/mL (≈ 199 mM). The “antimicrobial activity of enantiomer” value in the data set on bacteria and fungi is “greater antimicrobial activity than L-PLA”.
Turning to `O=C(O)[C@@H](O)Cc1ccccc1` [L-PLA], the “kinetic solubility in water” value in data set [6] is on record as “considerably lower”. In data set [7], the “saturation/equilibrium solubility in water” value was greater than 25 mg/mL and the solubility (thermodynamic) at 24 h was 25.7 ± 1.02 mg/mL (≈ 154 mM). Besides, the “T5% (onset temperature at 5% mass loss)” value in data set [5] was 156.07 °C.
Consider `O=C(O)C(O)Cc1ccccc1` (centres unmarked) [PLA, 2-hydroxy-3-phenylpropanoic acid], for which the “antimicrobial properties” value in data set [8] is on record as “exhibits antimicrobial properties”. In addition, in data set [6], the “kinetic solubility in water” value is “low kinetic solubility in water”. In addition, in data set [9], the “protection against colitis” value is “protect against Salmonella enterica serovar Typhimurium-induced colitis in mice”. In [10], the “PPAR-γ activity” value was “upregulates intestinal peroxisome proliferator-activated receptor γ (PPAR-γ) activity”.
Consider `C[N+](C)(C)C[C@H](O)CC(=O)[O-]` [carnitine], for which the “T5% (onset temperature at 5% mass loss)” value in data set [5] came out at 189.9 °C.
Turning to `CC(O)C(=O)O` (centres unmarked) [lactic acid], the “anti-inflammatory activity” value in data set [11] is on record as “anti-inflammatory activity”. For the same compound, in data set [11] (physiological concentrations, tight junction protein expression), the “epithelial barrier integrity” value is “enhance cervicovaginal epithelial barrier integrity”.
